# Assay results taken from patent publication US10906915B2, “Substituted pyrazoloazepin-4-ones and their use as phosphodiesterase inhibitors” (LEO Pharma A/S, priority 2016, dated 2021).
# Molecular target: human PDE4D catalytic domain (UniProt no. Q08499) (Homo sapiens (Human), UniProt Q08499)
# Assay: PDE4 assay (TR-FRET, FAM-cAMP cleavage)
# Format: biochemical
# Conditions: human PDE4D catalytic domain; molar concentration giving 50% inhibition of substrate cleavage; read-out: PDE4 IC50 range
# Method in brief: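 PDE4D catalytic domain ([…]) was incubated with unlabelled cAMP plus FAM-cAMP and titrated compound, stopped with binding buffer of metal-ion nanoparticles and Tb donor. AMP generation read by TR-FRET; IC50 as 50% inhibition of cleavage versus controls, reported as nM ranges.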
# human PDE4D catalytic domain, sequence (Q08499 380-740 limits assumed): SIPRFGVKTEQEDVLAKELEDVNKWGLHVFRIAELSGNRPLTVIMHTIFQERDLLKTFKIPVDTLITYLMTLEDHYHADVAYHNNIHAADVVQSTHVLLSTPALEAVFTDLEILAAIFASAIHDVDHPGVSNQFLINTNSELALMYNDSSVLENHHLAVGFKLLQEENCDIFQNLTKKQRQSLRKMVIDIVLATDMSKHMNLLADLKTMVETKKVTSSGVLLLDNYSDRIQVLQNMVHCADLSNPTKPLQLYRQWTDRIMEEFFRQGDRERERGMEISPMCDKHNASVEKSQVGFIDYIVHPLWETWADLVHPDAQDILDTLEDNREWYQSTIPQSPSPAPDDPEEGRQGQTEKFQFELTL
row,Compound,IC50 [nM]
1,"CCc1nn(C[C@@H](C)COC(=O)c2ccc(C(F)(F)F)cc2F)c2c1C(=O)NCC1(CCOCC1)C2 [Example 221, [(2R)-3-(3-ethyl-4-oxo-spiro[6,8-dihydro-5H-pyrazolo[4,3-c]azepine-7,4′-tetrahydropyran]-1-yl)-2-methyl-propyl] 2-fluoro-4-(trifluoromethyl)benzoate]",< 100
2,"CCc1nn(C[C@@H](C)COC(=O)c2ccc(F)cc2C(F)(F)F)c2c1C(=O)NCC1(CCOCC1)C2 [Example 222, [(2R)-3-(3-ethyl-4-oxo-spiro[6,8-dihydro-5H-pyrazolo[4,3-c]azepine-7,4′-tetrahydropyran]-1-yl)-2-methyl-propyl] 4-fluoro-2-(trifluoromethyl)benzoate]",< 100
3,"CCc1nn(C[C@@H](C)COC(=O)c2cc(F)ccc2C(F)(F)F)c2c1C(=O)NCC1(CCOCC1)C2 [Example 223, [(2R)-3-(3-ethyl-4-oxo-spiro[6,8-dihydro-5H-pyrazolo[4,3-c]azepine-7,4′-tetrahydropyran]-1-yl)-2-methyl-propyl] 5-fluoro-2-(trifluoromethyl)benzoate]",< 100
4,"CCc1nn(C[C@@H](C)COC(=O)c2ccc(F)c(C(F)(F)F)c2)c2c1C(=O)NCC1(CCOCC1)C2 [Example 224, [(2R)-3-(3-ethyl-4-oxo-spiro[6,8-dihydro-5H-pyrazolo[4,3-c]azepine-7,4′-tetrahydropyran]-1-yl)-2-methyl-propyl] 4-fluoro-3-(trifluoromethyl)benzoate]",< 100
5,"CCc1nn(C[C@@H](C)COC(=O)c2cc(F)cc(C(F)(F)F)c2)c2c1C(=O)NCC1(CCOCC1)C2 [Example 225, [(2R)-3-(3-ethyl-4-oxo-spiro[6,8-dihydro-5H-pyrazolo[4,3-c]azepine-7,4′-tetrahydropyran]-1-yl)-2-methyl-propyl] 3-fluoro-5-(trifluoromethyl)benzoate]",< 100
6,"CCc1nn(C[C@@H](C)COC(=O)c2cccc(S(=O)(=O)CC)c2)c2c1C(=O)NCC1(CCOCC1)C2 [Example 226, [(2R)-3-(3-ethyl-4-oxo-spiro[6,8-dihydro-5H-pyrazolo[4,3-c]azepine-7,4′-tetrahydropyran]-1-yl)-2-methyl-propyl] 3-ethylsulfonylbenzoate]",< 100
7,"CCc1nn(C[C@@H](C)COC(=O)c2ccc(S(=O)(=O)CC)cc2)c2c1C(=O)NCC1(CCOCC1)C2 [Example 227, [(2R)-3-(3-ethyl-4-oxo-spiro[6,8-dihydro-5H-pyrazolo[4,3-c]azepine-7,4′-tetrahydropyran]-1-yl)-2-methyl-propyl] 4-ethylsulfonylbenzoate]",< 100
8,"CCc1nn(C[C@@H](C)COC(=O)c2cccc(S(=O)(=O)NC)c2)c2c1C(=O)NCC1(CCOCC1)C2 [Example 228, [(2R)-3-(3-ethyl-4-oxo-spiro[6,8-dihydro-5H-pyrazolo[4,3-c]azepine-7,4′-tetrahydropyran]-1-yl)-2-methyl-propyl] 3-(methylsulfamoyl)benzoate]",< 100
9,"CCc1nn(C[C@@H](C)COC(=O)c2ccc(OC)cc2C(F)(F)F)c2c1C(=O)NCC1(CCOCC1)C2 [Example 229, [(2R)-3-(3-ethyl-4-oxo-spiro[6,8-dihydro-5H-pyrazolo[4,3-c]azepine-7,4′-tetrahydropyran]-1-yl)-2-methyl-propyl] 4-methoxy-2-(trifluoromethyl)benzoate]",< 100
10,"CCc1nn(C[C@@H](C)COC(=O)c2ccc(OC)c(C(F)(F)F)c2)c2c1C(=O)NCC1(CCOCC1)C2 [Example 230, [(2R)-3-(3-ethyl-4-oxo-spiro[6,8-dihydro-5H-pyrazolo[4,3-c]azepine-7,4′-tetrahydropyran]-1-yl)-2-methyl-propyl] 4-methoxy-3-(trifluoromethyl)benzoate]",< 100
11,"CCc1nn(C[C@@H](C)COC(=O)c2cc(OC)ccc2C(F)(F)F)c2c1C(=O)NCC1(CCOCC1)C2 [Example 231, [(2R)-3-(3-ethyl-4-oxo-spiro[6,8-dihydro-5H-pyrazolo[4,3-c]azepine-7,4′-tetrahydropyran]-1-yl)-2-methyl-propyl] 5-methoxy-2-(trifluoromethyl)benzoate]",< 100
12,"CCc1nn(C[C@@H](C)COC(=O)c2cc(OC)cc(C(F)(F)F)c2)c2c1C(=O)NCC1(CCOCC1)C2 [Example 232, [(2R)-3-(3-ethyl-4-oxo-spiro[6,8-dihydro-5H-pyrazolo[4,3-c]azepine-7,4′-tetrahydropyran]-1-yl)-2-methyl-propyl] 3-methoxy-5-(trifluoromethyl)benzoate]",< 100
13,"CCc1nn(C[C@@H](C)COC(=O)c2ccc(C(F)(F)F)c(OC)c2)c2c1C(=O)NCC1(CCOCC1)C2 [Example 233, [(2R)-3-(3-ethyl-4-oxo-spiro[6,8-dihydro-5H-pyrazolo[4,3-c]azepine-7,4′-tetrahydropyran]-1-yl)-2-methyl-propyl] 3-methoxy-4-(trifluoromethyl)benzoate]",< 100
14,"CCc1nn(C[C@@H](C)COC(=O)c2ccc(C(F)(F)F)c(Cl)c2)c2c1C(=O)NCC1(CCOCC1)C2 [Example 234, [(2R)-3-(3-ethyl-4-oxo-spiro[6,8-dihydro-5H-pyrazolo[4,3-c]azepine-7,4′-tetrahydropyran]-1-yl)-2-methyl-propyl] 3-chloro-4-(trifluoromethyl)benzoate]",< 100
15,"CCc1nn(C[C@@H](C)COC(=O)c2cccc(C(F)(F)F)c2Cl)c2c1C(=O)NCC1(CCOCC1)C2 [Example 235, [(2R)-3-(3-ethyl-4-oxo-spiro [6,8-dihydro-5H-pyrazolo[4,3-c]azepine-7,4′-tetrahydropyran]-1-yl)-2-methyl-propyl] 2-chloro-3-(trifluoromethyl)benzoate]",< 100
16,"CCc1nn(C[C@@H](C)COC(=O)c2ccc(Cl)cc2C(F)(F)F)c2c1C(=O)NCC1(CCOCC1)C2 [Example 236, [(2R)-3-(3-ethyl-4-oxo-spiro[6,8-dihydro-5H-pyrazolo[4,3-c]azepine-7,4′-tetrahydropyran]-1-yl)-2-methyl-propyl] 4-chloro-2-(trifluoromethyl)benzoate]",< 100
17,"CCc1nn(C[C@@H](C)COC(=O)c2ccc(C(F)(F)F)cc2Cl)c2c1C(=O)NCC1(CCOCC1)C2 [Example 237, [(2R)-3-(3-ethyl-4-oxo-spiro[6,8-dihydro-5H-pyrazolo[4,3-c]azepine-7,4′-tetrahydropyran]-1-yl)-2-methyl-propyl] 2-chloro-4-(trifluoromethyl)benzoate]",< 100
18,"CCc1nn(C[C@@H](C)COC(=O)c2ccc(Cl)c(C(F)(F)F)c2)c2c1C(=O)NCC1(CCOCC1)C2 [Example 238, [(2R)-3-(3-ethyl-4-oxo-spiro[6,8-dihydro-5H-pyrazolo[4,3-c]azepine-7,4′-tetrahydropyran]-1-yl)-2-methyl-propyl] 4-chloro-3-(trifluoromethyl)benzoate]",< 100
19,"CCc1nn(C[C@@H](C)COC(=O)c2cc(Cl)ccc2C(F)(F)F)c2c1C(=O)NCC1(CCOCC1)C2 [Example 239, [(2R)-3-(3-ethyl-4-oxo-spiro[6,8-dihydro-5H-pyrazolo[4,3-c]azepine-7,4′-tetrahydropyran]-1-yl)-2-methyl-propyl] 5-chloro-2-(trifluoromethyl)benzoate]",< 100
